In data set [1] the test system is Streptococcus pyogenes SSI-9. The experiment in a line: Antibacterial activity assay of bead-derived peptides (three concentrations). It counts as cell-based. The arrangement: key: +++: inhibition by the 640-fold diluted peptide solution; ++: inhibition by the 160-fold diluted solution; +: inhibition by the 40-fold diluted solution; -: no inhibition. To be noted: S. pyogenes, bead-derived peptide solution, three concentrations. Put shortly: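 First, each peptide stock was diluted 4- and 16-fold in DMSO; next, the three solutions were mixed with S. pyogenes SSI-9 suspension (2 × 10^5 CFU) in cation-adjusted Mueller Hinton Broth plus 5% laked horse blood; finally, plates stood 18 h at 37 °C before checking for grown-cell precipitation.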

Data set [2] can be described thus: H+/Na+ transport assay of bead-derived peptides (one-point).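 Further: relative to parent gramicidin A activity set to 1.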 In kind it is biochemical. The arrangement: key: relative activity; mean of two control wells = 1.00. Conditions: bead-derived peptide solution, EYPC/EYPG LUVs. In outline: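 Miniaturized 96-well format. LUVs with entrapped pyranine (1.0 mM) were exposed to peptide for 30 min at RT. Intensities were expressed relative to full lysis by Triton X-100 and no treatment, with control-well mean = 1.00.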

The conditions of data set [3]: cell viability/%. In outline: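 Peptide stocks diluted 250× in growth medium; P388 cells 1 × 10^4 cells/mL final; 37 °C, 5% CO2, 92 h. WST-1 + 1-methoxy PMS, 4 h, A415. Output: % viability.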

Where a SMILES comes first, the peptide text is derived from it. [ ]: non-standard residue; d: D form. The star is where a group is joined. NHCH2CH2OH = OCCN*; For = O=C*

For the compound `CNC(=O)C[C@@H](NC(=O)[C@@H](NC(=O)[C@H](NC(=O)[C@H](C)NC(=O)[C@@H](CC(C)C)NC(=O)[C@H](C)NC(=O)CNC(=O)[C@@H](NC=O)C(C)C)C(C)C)C(C)C)C(=O)N[C@@H](Cc1c[nH]c2ccccc12)C(=O)N[C@H](CC(C)C)C(=O)N[C@@H](Cc1c[nH]c2ccccc12)C(=O)N[C@H](CC(C)C)C(=O)N[C@@H](Cc1c[nH]c2ccccc12)C(=O)N[C@@H](C(=O)N[C@@H](Cc1c[nH]c2ccccc12)C(=O)NCCO)C(C)C` [compound 7204] (For-VGA[dL]A[dV]V[dD](NHMe)W[dL]W[dL]W[dV]W-NHCH2CH2OH), the antibacterial activity entry in data set [1] is listed as “-”. In addition, the “H+/Na+ transport activity normalized against the value of 1 (1.00)” value (“H+/Na+ transport activity normalized” below) in data set [2] came out at 1.17. The viability in data set [3] came out at 100%.
On the same counts, the results for `CC(C)C[C@@H](NC(=O)[C@H](C)NC(=O)[C@H](NC(=O)[C@H](C)NC(=O)CNC(=O)[C@@H](NC=O)C(C)C)[C@H](C)O)C(=O)N[C@H](C(=O)N[C@@H](C(=O)N[C@@H](Cc1c[nH]c2ccccc12)C(=O)N[C@@H](C(=O)N[C@@H](Cc1c[nH]c2ccccc12)C(=O)N[C@@H](C(=O)N[C@@H](Cc1c[nH]c2ccccc12)C(=O)N[C@H](CC(C)C)C(=O)N[C@@H](Cc1c[nH]c2ccccc12)C(=O)NCCO)C(C)C)[C@H](C)O)C(C)C)C(C)C` [compound 7225] (For-VGA[dT]A[dL]V[dV]W[dT]W[dV]W[dL]W-NHCH2CH2OH) are “-”, 1.14 and 100%.
For `CC(C)C[C@@H](NC(=O)[C@H](C)NC(=O)CNC(=O)[C@@H](NC=O)C(C)C)C(=O)N[C@@H](C)C(=O)N[C@H](CC(C)C)C(=O)N[C@H](C(=O)N[C@H](CC(C)C)C(=O)N[C@@H](Cc1c[nH]c2ccccc12)C(=O)N[C@@H](C(=O)N[C@@H](Cc1c[nH]c2ccccc12)C(=O)N[C@@H](C(=O)N[C@@H](Cc1c[nH]c2ccccc12)C(=O)N[C@@H](C(=O)N[C@@H](Cc1c[nH]c2ccccc12)C(=O)NCCO)[C@H](C)O)[C@H](C)O)C(C)C)C(C)C` [compound 7253] (For-VGA[dL]A[dL]V[dL]W[dV]W[dT]W[dT]W-NHCH2CH2OH) the same measures were “-”, 1.03 and 45.4%.
As for `CC(C)C[C@@H](NC(=O)[C@H](Cc1c[nH]c2ccccc12)NC(=O)[C@H](NC(=O)[C@H](Cc1c[nH]c2ccccc12)NC(=O)[C@H](NC(=O)[C@H](Cc1c[nH]c2ccccc12)NC(=O)[C@@H](CC(C)C)NC(=O)[C@@H](NC(=O)[C@H](NC(=O)[C@H](C)NC(=O)[C@H](NC(=O)[C@H](C)NC(=O)CNC(=O)[C@@H](NC=O)C(C)C)C(C)C)[C@H](C)O)C(C)C)C(C)C)C(C)C)C(=O)N[C@@H](Cc1c[nH]c2ccccc12)C(=O)NCCO` [compound 7320] (For-VGA[dV]A[dT]V[dL]W[dV]W[dV]W[dL]W-NHCH2CH2OH), in data set [1], the antibacterial activity entry is “-”. For the same compound, the “H+/Na+ transport activity normalized” value in data set [2] was 1.04. Besides, the viability in data set [3] was 58.5%.
As for `CNC(=O)C[C@@H](NC(=O)[C@H](Cc1c[nH]c2ccccc12)NC(=O)[C@H](NC(=O)[C@H](Cc1c[nH]c2ccccc12)NC(=O)[C@@H](CC(C)C)NC(=O)[C@H](Cc1c[nH]c2ccccc12)NC(=O)[C@@H](CC(C)C)NC(=O)[C@@H](NC(=O)[C@@H](CC(C)C)NC(=O)[C@H](C)NC(=O)[C@H](NC(=O)[C@H](C)NC(=O)CNC(=O)[C@@H](NC=O)C(C)C)C(C)C)C(C)C)C(C)C)C(=O)N[C@@H](Cc1c[nH]c2ccccc12)C(=O)NCCO` [compound 7334] (For-VGA[dV]A[dL]V[dL]W[dL]W[dV]W[dD](NHMe)W-NHCH2CH2OH), the antibacterial activity result in data set [1] is reported as “-”. The “H+/Na+ transport activity normalized” value in data set [2] came to 1.11. Besides, in data set [3], the viability turned out to be 94.6%.
Take `CC(C)C[C@@H](NC(=O)[C@H](C)NC(=O)CNC(=O)[C@@H](NC=O)C(C)C)C(=O)N[C@@H](C)C(=O)N[C@H](CC(C)C)C(=O)N[C@H](C(=O)N[C@H](CC(C)C)C(=O)N[C@@H](Cc1c[nH]c2ccccc12)C(=O)N[C@H](CC(C)C)C(=O)N[C@@H](Cc1c[nH]c2ccccc12)C(=O)N[C@@H](C(=O)N[C@@H](Cc1c[nH]c2ccccc12)C(=O)N[C@@H](C(=O)N[C@@H](Cc1c[nH]c2ccccc12)C(=O)NCCO)[C@H](C)O)C(C)C)C(C)C` [compound 7512] (For-VGA[dL]A[dL]V[dL]W[dL]W[dV]W[dT]W-NHCH2CH2OH): the antibacterial activity result in data set [1] was “-”. For the same compound, the “H+/Na+ transport activity normalized” value in data set [2] is listed as 1.05. The same compound came in with a viability in data set [3] of 100%.
Take `CC(C)C[C@@H](NC(=O)[C@H](C)NC(=O)CNC(=O)[C@@H](NC=O)C(C)C)C(=O)N[C@@H](C)C(=O)N[C@@H](C(=O)N[C@H](C(=O)N[C@H](CC(C)C)C(=O)N[C@@H](Cc1c[nH]c2ccccc12)C(=O)N[C@@H](C(=O)N[C@@H](Cc1c[nH]c2ccccc12)C(=O)N[C@H](CC(C)C)C(=O)N[C@@H](Cc1c[nH]c2ccccc12)C(=O)N[C@H](CC(C)C)C(=O)N[C@@H](Cc1c[nH]c2ccccc12)C(=O)NCCO)C(C)C)C(C)C)C(C)C` [compound 7532] (For-VGA[dL]A[dV]V[dL]W[dV]W[dL]W[dL]W-NHCH2CH2OH): the antibacterial activity result in data set [1] is given as “+”. For the same compound, in data set [2], the “H+/Na+ transport activity normalized” value is on record as 1.03. Further, the viability in data set [3] was 3.9%.
In the case of `CC(C)C[C@@H](NC(=O)[C@H](C)NC(=O)[C@H](NC(=O)[C@H](C)NC(=O)CNC(=O)[C@@H](NC=O)C(C)C)C(C)C)C(=O)N[C@H](C(=O)N[C@@H](C(=O)N[C@@H](Cc1c[nH]c2ccccc12)C(=O)N[C@@H](C(=O)N[C@@H](Cc1c[nH]c2ccccc12)C(=O)N[C@@H](C(=O)N[C@@H](Cc1c[nH]c2ccccc12)C(=O)N[C@@H](C(=O)N[C@@H](Cc1c[nH]c2ccccc12)C(=O)NCCO)C(C)C)C(C)C)C(C)C)C(C)C)C(C)C` [compound 7690] (For-VGA[dV]A[dL]V[dV]W[dV]W[dV]W[dV]W-NHCH2CH2OH), in data set [1], the antibacterial activity entry is “-”. Moreover, the “H+/Na+ transport activity normalized” value in data set [2] was 1.03. This compound yielded a viability in data set [3] of 100%.
On the same counts, the results for `CC(C)C[C@@H](NC(=O)[C@H](Cc1c[nH]c2ccccc12)NC(=O)[C@H](NC(=O)[C@H](Cc1c[nH]c2ccccc12)NC(=O)[C@@H](CC(C)C)NC(=O)[C@H](Cc1c[nH]c2ccccc12)NC(=O)[C@H](NC(=O)[C@@H](NC(=O)[C@H](NC(=O)[C@H](C)NC(=O)[C@H](NC(=O)[C@H](C)NC(=O)CNC(=O)[C@@H](NC=O)C(C)C)C(C)C)[C@H](C)O)C(C)C)C(C)C)C(C)C)C(=O)N[C@@H](Cc1c[nH]c2ccccc12)C(=O)NCCO` [compound 7912] (For-VGA[dV]A[dT]V[dV]W[dL]W[dV]W[dL]W-NHCH2CH2OH) are “-”, 1.12 and 100%.
For `CNC(=O)C[C@@H](NC(=O)[C@H](C)NC(=O)CNC(=O)[C@@H](NC=O)C(C)C)C(=O)N[C@@H](C)C(=O)N[C@H](CC(C)C)C(=O)N[C@H](C(=O)N[C@@H](C(=O)N[C@@H](Cc1c[nH]c2ccccc12)C(=O)N[C@H](CC(C)C)C(=O)N[C@@H](Cc1c[nH]c2ccccc12)C(=O)N[C@H](CC(C)C)C(=O)N[C@@H](Cc1c[nH]c2ccccc12)C(=O)N[C@H](CC(C)C)C(=O)N[C@@H](Cc1c[nH]c2ccccc12)C(=O)NCCO)C(C)C)C(C)C` [compound 8038] (For-VGA[dD](NHMe)A[dL]V[dV]W[dL]W[dL]W[dL]W-NHCH2CH2OH) the same measures were “-”, 1.04 and 100%.

Values taken from article PMC7531004, “Discovery of gramicidin A analogues with altered activities by multidimensional screening of a one-bead-one-compound library” (Nature Communications, 2020).
